According to US20250161286A1 (AEVIS BIO, INC., priority 2022, published 2025):

Experiment: Cytotoxicity evaluation, CCK analysis kit
Type: cell-based
Conditions: human, MM.1S (CRL-2974) multiple myeloma cells; MM.1S cells, treated for 3 days
Procedure: The MM.1S (CRL-2974) cell line, which is a human multiple myeloma cell line, was purchased from the American Type Culture Collection (ATCC, Manassas, VA, USA) and used, and incubated using RPMI1640 medium (Corning, MD, USA) supplemented with 10% fatal bovine serum (Corning, MD, USA), 100 U/ml of penicillin (Corning, MD, USA), and 100 μg/ml of streptomycin (Corning, MD, USA) at 37° C. in a 5% CO2 incubator for 24 hours.

`Nc1cccc2c1C(=O)N(C1CCC(=O)NC1=O)C2=O` (racemic) [pomalidomide, (R,S)-4-amino-2-(2,6-dioxopiperidin-3-yl)isoindole-1,3-dione, reference compound] showed an IC50 at 3 days of 69 nM.
